{"source": "patent US8969313B2", "about": "“Methods and compounds for preventing and treating a tumour” (Agency for Science, Technology and Research, priority 2007, dated 2015)", "key": {"[1]": {"test_system": "SFRP1, DACT1, DACT2, DACT3", "experiment": "RT-PCR analysis of SFRP1 and DACT1, 2 and 3 after 5-AzaC", "type": "cell-based, human", "details": "HCT116 cells, 5-AzaC 5 μM for 3 days", "excerpt": "(§1) A: Hierarchical clustering of Wnt inhibitors (upper) and Wnt/β-catenin target genes (lower) in human colorectal tumors (T) and matched normal mucosa (N). White signals in the upper panel indicate above-mean expression; white signals in the lower panel indicate below-mean expression. B: RT-PCR analysis of SFRP1 and DACT1, 2 and 3 from random-selected 8 pairs of human colorectal tumor and matched mucosa. C: Methylation status of SFRP1 and DACT3 in 8 tumors determined by methylation specific PCR (MSP) assay. M1, M2, M3 and M4 represent the examined PCR regions covering the entire CpG island of DACT3 promoter. D: RT-PCR analysis of SFRP1 and DACT1, 2 and 3 in a panel of colorectal cancer cell lines compared to the normal tissue. E: Methylation status of SFRP1 and DACT1, 2 and 3 in colorectal cancer cell lines. F: Determination of methylation status of CpG sites by sequencing of bisulphite-modified DNA from normal and colorectal cancer cell lines. Arrows indicate the transcription start sites. Open cycles represent unmethylated CpGs; closed cycles denote methylated CpGs. G: MSP analysis of DACT1, 2 and 3 promoters in HCT116 cells untreated or treated with 5-AzaC and in HCT116-DNMT1/DNMT3b−/− (DKO) cells. H: RT-PCR analysis of SFRP1 and DACT1, 2 and 3 in HCT116 and DLD1 cells treated with 5-AzaC (5 μM) for 3 days and in DKO cells. […]"}, "[2]": {"test_system": "DACT1 and DACT2 promoters", "experiment": "Methylation specific PCR (MSP) of DACT promoters after 5-AzaC", "type": "cell-based, human", "details": "HCT116 cells", "excerpt": "as §1, with “CpGs.” for “CpGs. G: MSP analysis of DACT1, 2 and 3 promoters in HCT116 cells untreated or treated with 5-AzaC and in HCT116-DNMT1/DNMT3b−/− (DKO) cells. H: RT-PCR analysis of SFRP1 and DACT1, 2 and 3 in HCT116 and DLD1 cells treated with 5-AzaC (5 μM) for 3 days and in DKO cells.”\nThe CpG island DNA methylation status was determined by PCR analysis after bisulfited modification and followed by methylation-specific PCR (MSP) and bisulfite genomic sequencing (BGS) (Yoshikawa, H., et al., Nat Genet (2001) 28, 29-35). […]"}, "[3]": {"test_system": "polycomb-repressive complex 2", "details": "Tan et al., 2007; cited from earlier work"}, "DACT3, DVL2, β-catenin": {"test_system": "DACT3, DVL2, β-catenin", "experiment": "Immunoblot analysis of DACT3, DVL2 and β-catenin in SW480 and DLD1 cells", "type": "cell-based, human", "details": "DZNep 5 μM, TSA 100 nM", "experimental": "FIG. 6. Combination of DZNep and TSA results in blockade of Wnt/β-catenin signaling and massive apoptosis in colorectal cancer cells. A: Immunoblot analysis of DACT3, DVL2, total β-catenin, and non-phosphorylated β-catenin (Active-β-catenin) in SW480 and DLD1 cells treated with DZNep (5 μM), TSA (100 nM) or both. B: Immunofluorescent images of DLD1 and SW480 cells treated with DZNep/TSA. β-catenin staining is red, nuclear staining is green (DRAQ5). C: Indicated colorectal cancer cell lines were treated as above; RNA was harvested and subjected to array analysis. Changes of expression of known Wnt/β-catenin target genes were shown using gene clustering program. […] D: Numeric values of data depicted in FIG. 6C (D+T=DZNep+TSA). E: DLD1 and HT29 cells were treated as in A, and cell death was determined by PI staining and FACS analysis. The data represent Mean±SD of three independent experiments. F: HT29 cells were treated as in A, and Caspase 3 activity was measured by FACS analysis. G: HT29 cells were treated as in A, followed by JC-1 staining and FACS analysis.\n(§2) Human tissue samples were obtained from Singapore Tissue Network using protocols approved by institutional Review Board of National University of Singapore; informed consent was obtained from each individual who provided the tissues. The colorectal cancer cell lines and non-transformed cell lines used in this study were purchased from the American Type Culture Collection (Manassas, Va.). HCT116 cells with genetic disruption of DNMT1 (DNA methyltransferase 1) and DNMT3B (DNA methyltransferase 3B) (HCT116 DKO) were kindly provided by Dr. Bert Vogelstein (Johns Hopkins University, MD). For drug treatment, cells were seeded the day before the drug treatment. Cells were treated with 5 μM 3-Deazaneplanocin A (DZNep) (obtained from Dr. Victor E. Marquez at National Cancer Institute, USA) or 5 μM 5-aza-2′-deoxycytidine (5-AzaC; Sigma) for 72 hours and Trichostatin A (TSA; Cell Signaling) at 100-200 nM for 24 hours. For 5-AzaC treatment, the medium was replaced with freshly added 5-AzaC for every 24 h. For co-treatment of cells with DZNep and TSA, DZNep was added for 24 hours followed by TSA for additional 24 hours for gene expression analysis and 48 hours for FACS analysis.\nImmunoblotting was performed as described previously (Tan et al., 2007, supra). The blots were probed with the following antibodies: anti-H3K27me3 (07-449), anti-H3K9me3 (07-442), anti-H3K9/K14 ac (06-599), anti-H3K4me3 (07-473) and anti-active β-catenin(05-665), were purchased from Upstate. Anti-H4K20me3 (ab9053) was from Abcam. Anti-β-catenin (6B3) and anti-H3 (3H1) were from Cell Signaling and anti-DVL2 (sc-8026) was from Santa Cruz. […]"}, "in vivo": {"experiment": "in vivo", "details": "BALB/c nude, mouse, ip"}, "[4]": {"experiment": "Initial maximum tolerated dose (MTD) study of DZNep"}, "histone modifications": {"test_system": "histone modifications", "experiment": "Immunoblotting of bulk histone modifications in HT29 and SW480 cells", "type": "cell-based, human", "experimental": "FIG. 5. Effects of combination of DZNep and TSA on DACT3 and histone modifications. A: DACT3 mRNA expression analysis using Illumina Beadarray in DLD1 cells treated with 5 μM DZNep, 5 μM 5-AzaC, 200 nM TSA or their combinations. The data shown represents Mean±SD of three independent experiments. B: Indicated colorectal cancer cell lines were treated with DZNep, TSA or both. RNA was harvested and subjected to array analysis (1: DCAT2, 2: DACT2, 3: DCAT3, 4: DKK4, 5: DKK3, 6: DKKL1, 7: DKK2, 8: DKK3, 9: DKK1, 10: SFRP4, 11: SFRP2, 12: SFRP5, 13: SFRP3, 14: SFRP1). Changes of expression of known Wnt/β-catenin antagonists are shown. C: Immunoblotting analysis of bulk histone modifications induced by DZNep, TSA or both in HT29 cells and SW480 cells. D: ChIP analysis of indicated the changes of histone marks at the DACT1 and DACT3 loci in HT29 cells untreated (white bars) or treated with DZNep and TSA (black bars). The values represent the normalized enrichments against the changes of a low background region before and after the drug treatment. The data represent Mean±SD of three independent experiments.\nas §2, with “For 5-AzaC treatment, the medium was replaced with freshly added 5-AzaC for every 24 h. For co-treatment of cells with DZNep and TSA, DZNep was added for 24 hours followed by TSA for additional 24 hours for gene expression analysis and 48 hours for FACS analysis.” left out"}, "[5]": {"type": "in vivo", "experimental": "FIG. 16. […]. The body weight was maintained at >80% in all groups. […].\nFor the HCT-116 study, nude mice that had received HCT-116 xenografts at day −7 were assigned into 4 groups of 7 animals each, and drug treatment was initiated on day 0 (see FIG. 1 for protocol outline): Group 1—vehicle control for both used compounds (Saline i.p. 3×/week in the morning, MC/Tween p.o. q.d. in the afternoon); Group 2—SAHA (200 mg/kg q.d. p.o. in the afternoon, plus the DZNep vehicle Saline 3/week i.p. in the morning); […]. The study was terminated on Day +14.\nThe study was conducted as using the protocol described in FIG. 15. The combination study was started using four groups of BALB/c nude mice bearing HCT-116 tumors (n=7 mice/group, initial mean tumor volume 6 days after inoculation: 91-107 mm^3). […]"}}}
{"smiles": "Nc1ncn([C@H]2C[C@H](O)[C@@H](CO)O2)c(=O)n1", "note": "[5-AzaC, 5-aza-2′-deoxycytidine]", "values": [{"measurement": "expression of SFRP1, DACT1, DACT2 and DACT3", "setting": "[1]", "value": "increased expression of SFRP1, DACT1 and DACT2, but not DACT3"}, {"measurement": "methylation at the DACT1 and DACT2 promoters", "setting": "[2]", "value": "decreased methylation"}]}
{"smiles": "Nc1nccc2c1ncn2C1C=C(CO)C(O)C1O", "note": "(stereo not drawn) [DZNep, 5-(4-amino-1H-imidazo[4,5-c]pyridin-1-yl)-3-(hydroxymethyl)-3-cyclopentene-1,2-diol]", "values": [{"measurement": "effect on polycomb-repressive complex 2 and histone methylation", "setting": "[3]", "value": "depletes components of the polycomb-repressive complex 2 and inhibits histone methylation"}, {"measurement": "DACT3 protein levels", "setting": "DACT3, DVL2, β-catenin", "value": "did not cause such changes"}, {"measurement": "DVL2 levels", "setting": "DACT3, DVL2, β-catenin", "value": "did not cause such changes"}, {"measurement": "MTD at 5 day", "setting": "in vivo", "value": 10, "unit": "mg/kg"}, {"measurement": "highest weight loss", "setting": "[4]; 10 mg/kg group, day 2", "value": 2.2, "unit": "%"}, {"measurement": "deaths", "setting": "[4]; 15 mg/kg group, day 3, in the absence of significant weight loss", "value": "Two of three mice died"}, {"measurement": "H3K4me3 (bulk histone, Western blot)", "setting": "histone modifications", "value": "slight decrease"}, {"measurement": "H3K9me3 (bulk histone, Western blot)", "setting": "histone modifications", "value": "little effect"}, {"measurement": "H3K27me3 and H4K20me3 (bulk histone, Western blot)", "setting": "histone modifications", "value": "strong reduction"}]}
{"smiles": "O=C(CCCCCCC(=O)Nc1ccccc1)NO", "note": "[SAHA, N′-hydroxy-N-phenyl-octanediamide]", "values": [{"measurement": "treatment-related death (TRD)", "setting": "[5]; day 10, body weight 82%, n=7/group", "value": 1}, {"measurement": "body weight", "setting": "[5]; day 14, DZNep 5 mg/kg i.p. 3×/week, SAHA 200 mg/kg p.o. q.d., HCT-116 tumour-bearing mice", "value": 96.8, "unit": "%"}]}
{"smiles": "CC(/C=C/C(=O)NO)=C\\[C@@H](C)C(=O)c1ccc(N(C)C)cc1", "note": "[TSA, 7-[R-(E,E)]-[4-(dimethylamino)phenyl]-N-hydroxy-4,6-dimethyl-7-oxo-2,4-heptadienamide, reference compound]", "values": [{"measurement": "DACT3 protein levels", "setting": "DACT3, DVL2, β-catenin", "value": "did not cause such changes"}, {"measurement": "DVL2 levels", "setting": "DACT3, DVL2, β-catenin", "value": "did not cause such changes"}]}
